From the kinase profiling compilation of Christmann-Franck et al. (2016)

Experiments:
Assay in all cases: radiometric filter-binding kinase assay
HIPK1 (human) = HIPK1 (human) (UniProt Q86Z02)
MELK (human) = MELK (human) (UniProt Q14680)
EPHB4 (human) = EPHB4 (human) (UniProt P54760)
TTK (human) = TTK (human) (UniProt P33981)
HIPK2 (human) = HIPK2 (human) (UniProt Q9H2X6)
FLT1 (human) = FLT1 (human) (UniProt P17948)
[1] = target: STK11 CAB39 STRADA (human) (UniProt Q9Y376+Q7RTN6+Q15831)
MARK4 (human) = MARK4 (human) (UniProt Q96L34)
GSK3B (human) = GSK3B (human) (UniProt P49841)
TAOK1 (human) = TAOK1 (human) (UniProt Q7L7X3)
GCK (human) = GCK (human) (UniProt Q12851)
SYK (human) = SYK (human) (UniProt P43405)
AURKB (human) = AURKB (human) (UniProt Q96GD4)
AURKA (human) = AURKA (human) (UniProt O14965)
MAP3K1 (human) = MAP3K1 (human) (UniProt Q13233)
CSNK1D (human) = CSNK1D (human) (UniProt P48730)
EEF2K (human) = EEF2K (human) (UniProt O00418)
PAK6 (human) = PAK6 (human) (UniProt Q9NQU5)
[2] = test system: AKT2 (human), P31751 [S474D]
MAP3K5 (human) = MAP3K5 (human) (UniProt Q99683)
EPHB1 (human) = EPHB1 (human) (UniProt P54762)
IGF1R (human) = IGF1R (human) (UniProt P08069)
PKN2 (human) = PKN2 (human) (UniProt Q16513)
PRKCZ (human) = PRKCZ (human) (UniProt Q05513)
SRC (human) = SRC (human) (UniProt P12931)
[3] = test system: PAK2 (human), Q13177 [T402E]
FGFR1 (human) = FGFR1 (human) (UniProt P11362)
MAP3K9 (human) = MAP3K9 (human) (UniProt P80192)
MAPK9 (human) = MAPK9 (human) (UniProt P45984)
MAPK1 (human) = MAPK1 (human) (UniProt P28482)
MAPK10 (human) = MAPK10 (human) (UniProt P53779)
YES1 (human) = YES1 (human) (UniProt P07947)
MAPK13 (human) = MAPK13 (human) (UniProt O15264)
MYLK (human) = MYLK (human) (UniProt Q15746)
MAP2K2 (human) = MAP2K2 (human) (UniProt P36507)
CHEK1 (human) = CHEK1 (human) (UniProt O14757)

EPHB1 (human), sequence (P54762 whole entry, looked up): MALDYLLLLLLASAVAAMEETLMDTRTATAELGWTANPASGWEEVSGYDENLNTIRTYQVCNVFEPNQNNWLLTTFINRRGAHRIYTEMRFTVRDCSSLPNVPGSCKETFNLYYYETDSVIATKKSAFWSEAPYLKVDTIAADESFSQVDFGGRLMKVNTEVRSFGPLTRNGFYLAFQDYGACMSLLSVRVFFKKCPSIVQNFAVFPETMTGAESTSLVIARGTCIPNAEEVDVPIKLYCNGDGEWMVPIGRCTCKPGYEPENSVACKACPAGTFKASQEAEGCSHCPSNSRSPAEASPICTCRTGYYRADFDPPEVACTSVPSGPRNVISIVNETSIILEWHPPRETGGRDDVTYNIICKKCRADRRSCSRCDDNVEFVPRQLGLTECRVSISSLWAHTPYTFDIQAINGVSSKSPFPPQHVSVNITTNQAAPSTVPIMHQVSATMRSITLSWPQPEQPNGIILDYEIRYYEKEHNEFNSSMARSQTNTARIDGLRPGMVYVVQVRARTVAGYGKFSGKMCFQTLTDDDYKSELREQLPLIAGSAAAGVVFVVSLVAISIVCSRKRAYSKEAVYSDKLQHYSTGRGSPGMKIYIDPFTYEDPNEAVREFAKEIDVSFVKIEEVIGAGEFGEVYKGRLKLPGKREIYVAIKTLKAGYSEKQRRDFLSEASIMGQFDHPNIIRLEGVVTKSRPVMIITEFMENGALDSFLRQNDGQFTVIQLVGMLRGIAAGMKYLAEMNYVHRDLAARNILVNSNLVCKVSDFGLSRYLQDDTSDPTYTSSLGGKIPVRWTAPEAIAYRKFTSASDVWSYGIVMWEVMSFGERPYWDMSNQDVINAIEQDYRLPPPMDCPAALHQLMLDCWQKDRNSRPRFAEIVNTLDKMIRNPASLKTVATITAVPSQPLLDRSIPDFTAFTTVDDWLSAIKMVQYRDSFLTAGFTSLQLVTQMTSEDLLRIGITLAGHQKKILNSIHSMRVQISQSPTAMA
TTK (human), sequence (P33981 whole entry, looked up): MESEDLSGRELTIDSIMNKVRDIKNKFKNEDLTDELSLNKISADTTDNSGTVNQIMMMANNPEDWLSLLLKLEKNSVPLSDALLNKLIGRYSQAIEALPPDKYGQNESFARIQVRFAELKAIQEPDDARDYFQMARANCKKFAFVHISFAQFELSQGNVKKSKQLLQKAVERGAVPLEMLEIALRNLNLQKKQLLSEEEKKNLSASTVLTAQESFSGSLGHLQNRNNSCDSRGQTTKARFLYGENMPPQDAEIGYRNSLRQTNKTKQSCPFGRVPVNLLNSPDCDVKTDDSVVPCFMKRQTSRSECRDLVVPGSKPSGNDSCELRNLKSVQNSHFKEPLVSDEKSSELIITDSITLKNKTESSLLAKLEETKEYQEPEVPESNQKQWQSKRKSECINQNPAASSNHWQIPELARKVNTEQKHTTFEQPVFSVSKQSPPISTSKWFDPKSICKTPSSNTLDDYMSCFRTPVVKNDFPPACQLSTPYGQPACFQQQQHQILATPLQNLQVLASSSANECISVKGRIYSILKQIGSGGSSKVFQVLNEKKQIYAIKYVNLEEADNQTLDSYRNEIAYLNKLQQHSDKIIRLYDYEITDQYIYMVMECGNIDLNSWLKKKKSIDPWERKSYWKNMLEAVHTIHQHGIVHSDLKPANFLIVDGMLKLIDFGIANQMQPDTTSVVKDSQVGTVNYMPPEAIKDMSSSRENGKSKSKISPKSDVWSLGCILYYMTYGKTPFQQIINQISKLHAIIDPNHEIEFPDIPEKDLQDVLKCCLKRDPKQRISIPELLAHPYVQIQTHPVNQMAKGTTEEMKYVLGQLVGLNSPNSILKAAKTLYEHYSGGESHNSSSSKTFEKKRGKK
MAPK13 (human), sequence (O15264 whole entry, looked up): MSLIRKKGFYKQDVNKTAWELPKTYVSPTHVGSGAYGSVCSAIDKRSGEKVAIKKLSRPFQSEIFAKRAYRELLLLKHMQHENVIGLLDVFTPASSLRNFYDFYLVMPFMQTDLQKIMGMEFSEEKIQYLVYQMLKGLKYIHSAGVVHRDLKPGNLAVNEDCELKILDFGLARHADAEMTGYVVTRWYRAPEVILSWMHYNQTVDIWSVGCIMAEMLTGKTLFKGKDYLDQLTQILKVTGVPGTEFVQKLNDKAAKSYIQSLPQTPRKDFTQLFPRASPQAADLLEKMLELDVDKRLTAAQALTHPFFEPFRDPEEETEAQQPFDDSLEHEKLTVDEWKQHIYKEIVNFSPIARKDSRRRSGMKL
FGFR1 (human), sequence (P11362 whole entry, looked up): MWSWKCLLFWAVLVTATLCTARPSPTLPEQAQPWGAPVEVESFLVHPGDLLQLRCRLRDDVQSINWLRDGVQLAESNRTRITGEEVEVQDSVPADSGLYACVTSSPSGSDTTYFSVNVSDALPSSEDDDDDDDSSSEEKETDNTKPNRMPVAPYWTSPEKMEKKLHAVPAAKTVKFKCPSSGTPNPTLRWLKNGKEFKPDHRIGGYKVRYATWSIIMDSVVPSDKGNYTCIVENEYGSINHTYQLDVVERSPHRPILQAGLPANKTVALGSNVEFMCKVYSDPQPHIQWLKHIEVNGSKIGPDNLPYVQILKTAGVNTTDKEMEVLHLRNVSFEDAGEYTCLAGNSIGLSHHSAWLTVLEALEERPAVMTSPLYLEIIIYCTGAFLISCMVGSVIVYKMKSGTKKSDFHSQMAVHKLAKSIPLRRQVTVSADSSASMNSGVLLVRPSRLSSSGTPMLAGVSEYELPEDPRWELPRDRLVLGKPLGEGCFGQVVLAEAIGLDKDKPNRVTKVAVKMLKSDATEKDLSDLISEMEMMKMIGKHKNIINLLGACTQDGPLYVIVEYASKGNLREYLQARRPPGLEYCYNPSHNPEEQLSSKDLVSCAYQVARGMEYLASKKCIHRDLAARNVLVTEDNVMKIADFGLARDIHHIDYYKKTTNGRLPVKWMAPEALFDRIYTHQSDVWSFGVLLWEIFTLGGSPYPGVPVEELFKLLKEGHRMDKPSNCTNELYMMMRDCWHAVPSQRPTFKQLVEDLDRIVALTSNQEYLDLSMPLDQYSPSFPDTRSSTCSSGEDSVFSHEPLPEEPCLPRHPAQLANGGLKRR
GCK (human), sequence (Q12851 whole entry, looked up): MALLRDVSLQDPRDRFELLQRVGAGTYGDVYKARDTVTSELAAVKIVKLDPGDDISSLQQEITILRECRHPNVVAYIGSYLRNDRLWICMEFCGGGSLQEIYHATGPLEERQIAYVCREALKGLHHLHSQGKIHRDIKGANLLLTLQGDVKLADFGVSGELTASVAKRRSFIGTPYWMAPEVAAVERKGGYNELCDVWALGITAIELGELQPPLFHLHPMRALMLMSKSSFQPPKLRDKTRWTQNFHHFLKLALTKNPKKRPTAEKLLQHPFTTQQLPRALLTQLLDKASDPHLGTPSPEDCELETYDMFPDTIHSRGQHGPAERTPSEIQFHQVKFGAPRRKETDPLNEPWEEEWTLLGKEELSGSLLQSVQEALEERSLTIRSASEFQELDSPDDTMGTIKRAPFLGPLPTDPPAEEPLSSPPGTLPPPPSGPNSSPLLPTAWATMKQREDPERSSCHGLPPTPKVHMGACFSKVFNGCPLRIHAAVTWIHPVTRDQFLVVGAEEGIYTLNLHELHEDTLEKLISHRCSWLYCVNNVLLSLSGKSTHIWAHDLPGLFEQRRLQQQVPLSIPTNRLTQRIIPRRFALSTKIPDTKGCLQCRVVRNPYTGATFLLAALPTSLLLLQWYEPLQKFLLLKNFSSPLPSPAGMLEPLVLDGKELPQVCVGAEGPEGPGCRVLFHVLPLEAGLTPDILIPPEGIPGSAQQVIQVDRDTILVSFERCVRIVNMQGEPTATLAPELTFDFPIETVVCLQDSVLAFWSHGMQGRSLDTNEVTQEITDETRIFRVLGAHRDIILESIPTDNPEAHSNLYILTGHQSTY
MARK4 (human), sequence (Q96L34 whole entry, looked up): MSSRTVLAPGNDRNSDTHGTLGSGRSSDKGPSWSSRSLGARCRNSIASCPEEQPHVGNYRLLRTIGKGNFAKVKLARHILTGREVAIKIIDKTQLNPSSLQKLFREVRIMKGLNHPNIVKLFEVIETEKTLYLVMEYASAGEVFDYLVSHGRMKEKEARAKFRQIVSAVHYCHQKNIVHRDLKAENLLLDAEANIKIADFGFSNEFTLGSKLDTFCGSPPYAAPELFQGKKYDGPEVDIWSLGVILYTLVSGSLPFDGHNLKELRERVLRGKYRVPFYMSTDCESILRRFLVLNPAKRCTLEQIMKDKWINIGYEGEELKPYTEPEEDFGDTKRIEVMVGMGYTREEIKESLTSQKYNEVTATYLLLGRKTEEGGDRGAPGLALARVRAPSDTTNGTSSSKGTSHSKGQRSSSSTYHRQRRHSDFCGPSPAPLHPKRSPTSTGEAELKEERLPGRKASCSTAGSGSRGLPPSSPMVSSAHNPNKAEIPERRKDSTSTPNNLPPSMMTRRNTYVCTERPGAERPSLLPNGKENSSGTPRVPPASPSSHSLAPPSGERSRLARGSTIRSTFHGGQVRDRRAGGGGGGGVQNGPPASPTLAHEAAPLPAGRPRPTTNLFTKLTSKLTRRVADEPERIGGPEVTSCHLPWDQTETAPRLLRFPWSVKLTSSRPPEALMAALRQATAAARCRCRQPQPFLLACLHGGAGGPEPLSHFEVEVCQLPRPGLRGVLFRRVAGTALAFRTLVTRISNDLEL
GSK3B (human), sequence (P49841 whole entry, looked up): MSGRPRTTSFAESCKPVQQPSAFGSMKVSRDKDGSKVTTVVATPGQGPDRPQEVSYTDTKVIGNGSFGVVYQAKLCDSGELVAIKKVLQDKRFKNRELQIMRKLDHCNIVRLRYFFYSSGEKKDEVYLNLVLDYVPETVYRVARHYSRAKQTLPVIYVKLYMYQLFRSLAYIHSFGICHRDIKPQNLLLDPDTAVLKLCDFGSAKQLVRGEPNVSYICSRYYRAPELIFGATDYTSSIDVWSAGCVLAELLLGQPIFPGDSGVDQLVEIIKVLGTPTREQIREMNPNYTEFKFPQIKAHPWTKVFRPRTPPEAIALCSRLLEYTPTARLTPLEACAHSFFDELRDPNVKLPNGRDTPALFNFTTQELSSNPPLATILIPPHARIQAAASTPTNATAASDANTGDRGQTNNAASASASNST

CNC(=O)C1[C@H]2O[C@@](C)([C@@H]1N)n1c3ccccc3c3c4c(c5c6ccccc6n2c5c31)C(=O)NC4 (stereo not given in full)
residual activity (HIPK1 (human); compound 0.01 µM): 98%
residual activity (HIPK1 (human); compound 0.1 µM): 82%
residual activity (HIPK1 (human); compound 1.0 µM): 22%
residual activity (MELK (human); compound 0.01 µM): 18%
residual activity (MELK (human); compound 0.1 µM): 10%
residual activity (MELK (human); compound 1.0 µM): 5%
residual activity (EPHB4 (human); compound 0.01 µM): 102%
residual activity (EPHB4 (human); compound 0.1 µM): 60%
residual activity (EPHB4 (human); compound 1.0 µM): 8%
residual activity (TTK (human); compound 0.01 µM): 37%
residual activity (TTK (human); compound 0.1 µM): 13%
residual activity (TTK (human); compound 1.0 µM): 7%
residual activity (HIPK2 (human); compound 0.01 µM): 85%
residual activity (HIPK2 (human); compound 0.1 µM): 30%
residual activity (HIPK2 (human); compound 1.0 µM): 6%
residual activity (FLT1 (human); compound 0.01 µM): 17%
residual activity (FLT1 (human); compound 0.1 µM): 13%
residual activity (FLT1 (human); compound 1.0 µM): 4%
residual activity ([1]; compound 0.01 µM): 103%
residual activity ([1]; compound 0.1 µM): 50%
residual activity ([1]; compound 1.0 µM): 35%
residual activity (MARK4 (human); compound 0.01 µM): 10%
residual activity (MARK4 (human); compound 0.1 µM): 2%
residual activity (MARK4 (human); compound 1.0 µM): 1%
residual activity (GSK3B (human); compound 0.01 µM): 51%
residual activity (GSK3B (human); compound 0.1 µM): 15%
residual activity (GSK3B (human); compound 1.0 µM): 7%
residual activity (TAOK1 (human); compound 0.01 µM): 53%
residual activity (TAOK1 (human); compound 0.1 µM): 15%
residual activity (TAOK1 (human); compound 1.0 µM): 7%
residual activity (GCK (human); compound 0.01 µM): 6%
residual activity (GCK (human); compound 0.1 µM): 4%
residual activity (GCK (human); compound 1.0 µM): 2%
residual activity (SYK (human); compound 0.01 µM): 21%
residual activity (SYK (human); compound 0.1 µM): 6%
residual activity (SYK (human); compound 1.0 µM): 2%
residual activity (AURKB (human); compound 0.01 µM): 49%
residual activity (AURKB (human); compound 0.1 µM): 46%
residual activity (AURKB (human); compound 1.0 µM): 39%
residual activity (AURKA (human); compound 0.01 µM): 28%
residual activity (AURKA (human); compound 0.1 µM): 4%
residual activity (AURKA (human); compound 1.0 µM): 5%
residual activity (MAP3K1 (human); compound 0.01 µM): 97%
residual activity (MAP3K1 (human); compound 0.1 µM): 78%
residual activity (MAP3K1 (human); compound 1.0 µM): 23%
residual activity (CSNK1D (human); compound 0.01 µM): 109%
residual activity (CSNK1D (human); compound 0.1 µM): 107%
residual activity (CSNK1D (human); compound 1.0 µM): 96%
residual activity (EEF2K (human); compound 0.01 µM): 105%
residual activity (EEF2K (human); compound 0.1 µM): 97%
residual activity (EEF2K (human); compound 1.0 µM): 79%
residual activity (PAK6 (human); compound 0.01 µM): 29%
residual activity (PAK6 (human); compound 0.1 µM): 2%
residual activity (PAK6 (human); compound 1.0 µM): 1%
residual activity ([2]; compound 0.01 µM): 109%
residual activity ([2]; compound 0.1 µM): 51%
residual activity ([2]; compound 1.0 µM): 8%
residual activity (MAP3K5 (human); compound 0.01 µM): 113%
residual activity (MAP3K5 (human); compound 0.1 µM): 15%
residual activity (MAP3K5 (human); compound 1.0 µM): 2%
residual activity (EPHB1 (human); compound 0.01 µM): 41%
residual activity (EPHB1 (human); compound 0.1 µM): 56%
residual activity (EPHB1 (human); compound 1.0 µM): 25%
residual activity (IGF1R (human); compound 0.01 µM): 87%
residual activity (IGF1R (human); compound 0.1 µM): 64%
residual activity (IGF1R (human); compound 1.0 µM): 3%
residual activity (PKN2 (human); compound 0.01 µM): 21%
residual activity (PKN2 (human); compound 0.1 µM): 8%
residual activity (PKN2 (human); compound 1.0 µM): 6%
residual activity (PRKCZ (human); compound 0.01 µM): 110%
residual activity (PRKCZ (human); compound 0.1 µM): 56%
residual activity (PRKCZ (human); compound 1.0 µM): 15%
residual activity (SRC (human); compound 0.01 µM): 78%
residual activity (SRC (human); compound 0.1 µM): 19%
residual activity (SRC (human); compound 1.0 µM): 6%
residual activity ([3]; compound 0.01 µM): 71%
residual activity ([3]; compound 0.1 µM): 19%
residual activity ([3]; compound 1.0 µM): 4%
residual activity (FGFR1 (human); compound 0.01 µM): 53%
residual activity (FGFR1 (human); compound 0.1 µM): 22%
residual activity (FGFR1 (human); compound 1.0 µM): 3%
residual activity (MAP3K9 (human); compound 0.01 µM): 3%
residual activity (MAP3K9 (human); compound 0.1 µM): 2%
residual activity (MAP3K9 (human); compound 1.0 µM): 2%
residual activity (MAPK9 (human); compound 0.01 µM): 101%
residual activity (MAPK9 (human); compound 0.1 µM): 98%
residual activity (MAPK9 (human); compound 1.0 µM): 4%
residual activity (MAPK1 (human); compound 0.01 µM): 22%
residual activity (MAPK1 (human); compound 0.1 µM): 6%
residual activity (MAPK1 (human); compound 1.0 µM): 5%
residual activity (MAPK10 (human); compound 0.01 µM): 65%
residual activity (MAPK10 (human); compound 0.1 µM): 30%
residual activity (MAPK10 (human); compound 1.0 µM): 26%
residual activity (YES1 (human); compound 0.01 µM): 76%
residual activity (YES1 (human); compound 0.1 µM): 20%
residual activity (YES1 (human); compound 1.0 µM): 2%
residual activity (MAPK13 (human); compound 0.01 µM): 100%
residual activity (MAPK13 (human); compound 0.1 µM): 97%
residual activity (MAPK13 (human); compound 1.0 µM): 48%
residual activity (MYLK (human); compound 0.01 µM): 48%
residual activity (MYLK (human); compound 0.1 µM): 4%
residual activity (MYLK (human); compound 1.0 µM): 1%
residual activity (MAP2K2 (human); compound 0.01 µM): 32%
residual activity (MAP2K2 (human); compound 0.1 µM): 17%
residual activity (MAP2K2 (human); compound 1.0 µM): 14%
residual activity (CHEK1 (human); compound 0.01 µM): 11%
residual activity (CHEK1 (human); compound 0.1 µM): 4%
residual activity (CHEK1 (human); compound 1.0 µM): 3%

CCNc1nc(Nc2cc(F)c(C(=O)N3CCOCC3)cc2OC)ncc1C(F)(F)F
residual activity (HIPK1 (human); compound 1.0 µM): 78%
residual activity (HIPK1 (human); compound 10.0 µM): 35%
residual activity (MELK (human); compound 1.0 µM): 90%
residual activity (MELK (human); compound 10.0 µM): 43%
residual activity (EPHB4 (human); compound 1.0 µM): 96%
residual activity (EPHB4 (human); compound 10.0 µM): 87%
residual activity (TTK (human); compound 1.0 µM): 52%
residual activity (TTK (human); compound 10.0 µM): 32%
residual activity (HIPK2 (human); compound 1.0 µM): 88%
residual activity (HIPK2 (human); compound 10.0 µM): 65%
residual activity (FLT1 (human); compound 1.0 µM): 62%
residual activity (FLT1 (human); compound 10.0 µM): 13%
residual activity ([1]; compound 1.0 µM): 89%
residual activity ([1]; compound 10.0 µM): 86%
residual activity (MARK4 (human); compound 1.0 µM): 91%
residual activity (MARK4 (human); compound 10.0 µM): 67%
residual activity (GSK3B (human); compound 1.0 µM): 90%
residual activity (GSK3B (human); compound 10.0 µM): 83%
residual activity (TAOK1 (human); compound 1.0 µM): 111%
residual activity (TAOK1 (human); compound 10.0 µM): 102%
residual activity (GCK (human); compound 1.0 µM): 88%
residual activity (GCK (human); compound 10.0 µM): 28%
residual activity (SYK (human); compound 1.0 µM): 70%
residual activity (SYK (human); compound 10.0 µM): 33%
residual activity (AURKB (human); compound 1.0 µM): 55%
residual activity (AURKB (human); compound 10.0 µM): 18%
residual activity (AURKA (human); compound 1.0 µM): 97%
residual activity (AURKA (human); compound 10.0 µM): 55%
residual activity (MAP3K1 (human); compound 1.0 µM): 104%
residual activity (MAP3K1 (human); compound 10.0 µM): 99%
residual activity (CSNK1D (human); compound 1.0 µM): 98%
residual activity (CSNK1D (human); compound 10.0 µM): 81%
residual activity (EEF2K (human); compound 1.0 µM): 116%
residual activity (EEF2K (human); compound 10.0 µM): 107%
residual activity (PAK6 (human); compound 1.0 µM): 107%
residual activity (PAK6 (human); compound 10.0 µM): 93%
residual activity ([2]; compound 1.0 µM): 92%
residual activity ([2]; compound 10.0 µM): 95%
residual activity (MAP3K5 (human); compound 1.0 µM): 44%
residual activity (MAP3K5 (human); compound 10.0 µM): 10%
residual activity (EPHB1 (human); compound 1.0 µM): 100%
residual activity (EPHB1 (human); compound 10.0 µM): 90%
residual activity (IGF1R (human); compound 1.0 µM): 32%
residual activity (IGF1R (human); compound 10.0 µM): 38%
residual activity (PKN2 (human); compound 1.0 µM): 73%
residual activity (PKN2 (human); compound 10.0 µM): 65%
residual activity (PRKCZ (human); compound 1.0 µM): 99%
residual activity (PRKCZ (human); compound 10.0 µM): 83%
residual activity (SRC (human); compound 1.0 µM): 87%
residual activity (SRC (human); compound 10.0 µM): 83%
residual activity ([3]; compound 1.0 µM): 86%
residual activity ([3]; compound 10.0 µM): 86%
residual activity (FGFR1 (human); compound 1.0 µM): 118%
residual activity (FGFR1 (human); compound 10.0 µM): 95%
residual activity (MAP3K9 (human); compound 1.0 µM): 25%
residual activity (MAP3K9 (human); compound 10.0 µM): 3%
residual activity (MAPK9 (human); compound 1.0 µM): 104%
residual activity (MAPK9 (human); compound 10.0 µM): 89%
residual activity (MAPK1 (human); compound 1.0 µM): 99%
residual activity (MAPK1 (human); compound 10.0 µM): 71%
residual activity (MAPK10 (human); compound 1.0 µM): 84%
residual activity (MAPK10 (human); compound 10.0 µM): 50%
residual activity (YES1 (human); compound 1.0 µM): 104%
residual activity (YES1 (human); compound 10.0 µM): 104%
residual activity (MAPK13 (human); compound 1.0 µM): 102%
residual activity (MAPK13 (human); compound 10.0 µM): 98%
residual activity (MYLK (human); compound 1.0 µM): 31%
residual activity (MYLK (human); compound 10.0 µM): 6%
residual activity (MAP2K2 (human); compound 1.0 µM): 93%
residual activity (MAP2K2 (human); compound 10.0 µM): 90%
residual activity (CHEK1 (human); compound 1.0 µM): 44%
residual activity (CHEK1 (human); compound 10.0 µM): 12%
